{
  "source": "ChEMBL document CHEMBL1629601",
  "about": "“In vitro susceptibility of field isolates of Leishmania donovani to Miltefosine and amphotericin B: correlation with sodium antimony gluconate susceptibility and implications for treatment in areas of endemicity” (2009)",
  "type_in_all_cases": "functional",
  "key": {"[1]": {"test_system": "Leishmania donovani", "experiment": "Antimicrobial activity against Leishmania donovani K192 amastigote"}, "[2]": {"test_system": "Leishmania donovani", "experiment": "Antimicrobial activity against Leishmania donovani K439 amastigote"}, "[3]": {"test_system": "Leishmania donovani", "experiment": "Antimicrobial activity against Leishmania donovani K435 amastigote"}, "[4]": {"test_system": "Leishmania donovani", "experiment": "Antimicrobial activity against Leishmania donovani K429 amastigote"}, "[5]": {"test_system": "Leishmania donovani", "experiment": "Antimicrobial activity against Leishmania donovani K498 amastigote"}, "[6]": {"test_system": "Leishmania donovani", "experiment": "Antimicrobial activity against Leishmania donovani K131 amastigote"}, "[7]": {"test_system": "Leishmania donovani", "experiment": "Antimicrobial activity against Leishmania donovani K216 amastigote"}, "[8]": {"test_system": "Leishmania donovani", "experiment": "Antimicrobial activity against Leishmania donovani K59 amastigote"}, "[9]": {"test_system": "Leishmania donovani", "experiment": "Antimicrobial activity against Leishmania donovani K251 amastigote"}, "[10]": {"test_system": "Leishmania donovani", "experiment": "Antimicrobial activity against Leishmania donovani K135 amastigote"}, "[11]": {"test_system": "Leishmania donovani", "experiment": "Antimicrobial activity against Leishmania donovani LdAG83 amastigote"}, "[12]": {"test_system": "Leishmania donovani", "experiment": "Antimicrobial activity against Leishmania donovani K133 amastigote"}, "[13]": {"test_system": "Leishmania donovani", "experiment": "Antimicrobial activity against Leishmania donovani K509 amastigote"}, "[14]": {"test_system": "Leishmania donovani", "experiment": "Antimicrobial activity against Leishmania donovani K516 amastigote"}, "[15]": {"test_system": "Leishmania donovani", "experiment": "Antimicrobial activity against Leishmania donovani K149 amastigote"}, "[16]": {"test_system": "Leishmania donovani", "experiment": "Antimicrobial activity against Leishmania donovani K111 amastigote"}, "[17]": {"test_system": "Leishmania donovani", "experiment": "Antimicrobial activity against Leishmania donovani K417 amastigote"}, "[18]": {"test_system": "Leishmania donovani", "experiment": "Antimicrobial activity against Leishmania donovani K80 amastigote"}, "[19]": {"test_system": "Leishmania donovani", "experiment": "Antimicrobial activity against Leishmania donovani K132 amastigote"}, "[20]": {"test_system": "Leishmania donovani", "experiment": "Antimicrobial activity against Leishmania donovani K481 amastigote"}, "[21]": {"test_system": "Leishmania donovani", "experiment": "Antimicrobial activity against Leishmania donovani K131 promastigote", "details": "read-out: ED50 (the source's name)"}, "[22]": {"test_system": "Leishmania donovani", "experiment": "Antimicrobial activity against Leishmania donovani K516 promastigote", "details": "read-out: ED50 (the source's name)"}, "[23]": {"test_system": "Leishmania donovani", "experiment": "Antimicrobial activity against Leishmania donovani K251 promastigote", "details": "read-out: ED50 (the source's name)"}, "[24]": {"test_system": "Leishmania donovani", "experiment": "Antimicrobial activity against Leishmania donovani K132 promastigote", "details": "read-out: ED50 (the source's name)"}, "[25]": {"test_system": "Leishmania donovani", "experiment": "Antimicrobial activity against Leishmania donovani K481 promastigote", "details": "read-out: ED50 (the source's name)"}, "[26]": {"test_system": "Leishmania donovani", "experiment": "Antimicrobial activity against Leishmania donovani K429 promastigote", "details": "read-out: ED50 (the source's name)"}, "[27]": {"test_system": "Leishmania donovani", "experiment": "Antimicrobial activity against Leishmania donovani K439 promastigote", "details": "read-out: ED50 (the source's name)"}, "[28]": {"test_system": "Leishmania donovani", "experiment": "Antimicrobial activity against Leishmania donovani K135 promastigote", "details": "read-out: ED50 (the source's name)"}, "[29]": {"test_system": "Leishmania donovani", "experiment": "Antimicrobial activity against Leishmania donovani K149 promastigote", "details": "read-out: ED50 (the source's name)"}, "[30]": {"test_system": "Leishmania donovani", "experiment": "Antimicrobial activity against Leishmania donovani LdAG83 promastigote", "details": "read-out: ED50 (the source's name)"}, "[31]": {"test_system": "Leishmania donovani", "experiment": "Antimicrobial activity against Leishmania donovani K111 promastigote", "details": "read-out: ED50 (the source's name)"}, "[32]": {"test_system": "Leishmania donovani", "experiment": "Antimicrobial activity against Leishmania donovani K435 promastigote", "details": "read-out: ED50 (the source's name)"}, "[33]": {"test_system": "Leishmania donovani", "experiment": "Antimicrobial activity against Leishmania donovani K417 promastigote", "details": "read-out: ED50 (the source's name)"}, "[34]": {"test_system": "Leishmania donovani", "experiment": "Antimicrobial activity against Leishmania donovani K192 promastigote", "details": "read-out: ED50 (the source's name)"}, "[35]": {"test_system": "Leishmania donovani", "experiment": "Antimicrobial activity against Leishmania donovani K59 promastigote", "details": "read-out: ED50 (the source's name)"}, "[36]": {"test_system": "Leishmania donovani", "experiment": "Antimicrobial activity against Leishmania donovani K80 promastigote", "details": "read-out: ED50 (the source's name)"}, "[37]": {"test_system": "Leishmania donovani", "experiment": "Antimicrobial activity against Leishmania donovani K216 promastigote", "details": "read-out: ED50 (the source's name)"}, "[38]": {"test_system": "Leishmania donovani", "experiment": "Antimicrobial activity against Leishmania donovani K133 promastigote", "details": "read-out: ED50 (the source's name)"}, "[39]": {"test_system": "Leishmania donovani", "experiment": "Antimicrobial activity against Leishmania donovani K498 promastigote", "details": "read-out: ED50 (the source's name)"}, "[40]": {"details": "read-out: ED50 (the source's name)"}},
  "data": [
    {"compound": "D-gluconic acid 2,4:2',4'-O-[oxybis(oxidostibylidyne)]bis-trisodium salt nonahydrate", "values": [
      {"measurement": "ED50", "setting": "[1]", "value": 20.3, "unit": "µg/mL"},
      {"measurement": "ED50", "setting": "[2]", "value": 12.9, "unit": "µg/mL"},
      {"measurement": "ED50", "setting": "[3]", "value": 11.8, "unit": "µg/mL"},
      {"measurement": "ED50", "setting": "[4]", "value": 13.8, "unit": "µg/mL"},
      {"measurement": "ED50", "setting": "[5]", "value": 15.8, "unit": "µg/mL"},
      {"measurement": "ED50", "setting": "[6]", "value": 19.4, "unit": "µg/mL"},
      {"measurement": "ED50", "setting": "[7]", "value": 2.14, "unit": "µg/mL"},
      {"measurement": "ED50", "setting": "[8]", "value": 14.7, "unit": "µg/mL"},
      {"measurement": "ED50", "setting": "[9]", "value": 11.8, "unit": "µg/mL"},
      {"measurement": "ED50", "setting": "[10]", "value": 4.22, "unit": "µg/mL"},
      {"measurement": "ED50", "setting": "[11]", "value": 2.06, "unit": "µg/mL"},
      {"measurement": "ED50", "setting": "[12]", "value": 3.45, "unit": "µg/mL"},
      {"measurement": "ED50", "setting": "[13]", "value": 16.8, "unit": "µg/mL"},
      {"measurement": "ED50", "setting": "[14]", "value": 16.5, "unit": "µg/mL"},
      {"measurement": "ED50", "setting": "[15]", "value": 15.7, "unit": "µg/mL"},
      {"measurement": "ED50", "setting": "[16]", "value": 5.63, "unit": "µg/mL"},
      {"measurement": "ED50", "setting": "[17]", "value": 14.7, "unit": "µg/mL"},
      {"measurement": "ED50", "setting": "[18]", "value": 10.4, "unit": "µg/mL"},
      {"measurement": "ED50", "setting": "[19]", "value": 3.95, "unit": "µg/mL"},
      {"measurement": "ED50", "setting": "[20]", "value": 17.5, "unit": "µg/mL"}
    ]},
    {"compound": "C[C@@H]1[C@H](O)[C@@H](C)/C=C/C=C/C=C/C=C/C=C/C=C/C=C/[C@H](O[C@@H]2O[C@H](C)[C@@H](O)[C@H](N)[C@@H]2O)C[C@@H]2O[C@](O)(C[C@@H](O)C[C@@H](O)[C@H](O)CC[C@@H](O)C[C@@H](O)CC(=O)O[C@H]1C)C[C@H](O)[C@H]2C(=O)O", "note": "[AMPHOTERICIN B]", "values": [
      {"measurement": "EC50", "setting": "[21]", "value": 0.43, "unit": "µg/mL"},
      {"measurement": "EC50", "setting": "[22]", "value": 1.26, "unit": "µg/mL"},
      {"measurement": "EC50", "setting": "[1]; [40]", "value": 0.67, "unit": "µg/mL"},
      {"measurement": "EC50", "setting": "[2]; [40]", "value": 0.77, "unit": "µg/mL"},
      {"measurement": "EC50", "setting": "[23]", "value": 1.42, "unit": "µg/mL"},
      {"measurement": "EC50", "setting": "[3]; [40]", "value": 0.17, "unit": "µg/mL"},
      {"measurement": "EC50", "setting": "[4]; [40]", "value": 0.37, "unit": "µg/mL"},
      {"measurement": "EC50", "setting": "[24]", "value": 1.22, "unit": "µg/mL"},
      {"measurement": "EC50", "setting": "[25]", "value": 0.69, "unit": "µg/mL"},
      {"measurement": "EC50", "setting": "[5]; [40]", "value": 0.54, "unit": "µg/mL"},
      {"measurement": "EC50", "setting": "[26]", "value": 1.34, "unit": "µg/mL"},
      {"measurement": "EC50", "setting": "[6]; [40]", "value": 0.35, "unit": "µg/mL"},
      {"measurement": "EC50", "setting": "[27]", "value": 1.62, "unit": "µg/mL"},
      {"measurement": "EC50", "setting": "[7]; [40]", "value": 0.25, "unit": "µg/mL"},
      {"measurement": "EC50", "setting": "[28]", "value": 0.31, "unit": "µg/mL"},
      {"measurement": "EC50", "setting": "[8]; [40]", "value": 0.18, "unit": "µg/mL"},
      {"measurement": "EC50", "setting": "[29]", "value": 1.46, "unit": "µg/mL"},
      {"measurement": "EC50", "setting": "[9]; [40]", "value": 0.55, "unit": "µg/mL"},
      {"measurement": "EC50", "setting": "[30]", "value": 0.023, "unit": "µg/mL"},
      {"measurement": "EC50", "setting": "[10]; [40]", "value": 0.25, "unit": "µg/mL"},
      {"measurement": "EC50", "setting": "[31]", "value": 1.02, "unit": "µg/mL"},
      {"measurement": "EC50", "setting": "[11]; [40]", "value": 0.017, "unit": "µg/mL"},
      {"measurement": "EC50", "setting": "[12]; [40]", "value": 0.21, "unit": "µg/mL"},
      {"measurement": "EC50", "setting": "[13]; [40]", "value": 0.65, "unit": "µg/mL"},
      {"measurement": "EC50", "setting": "[32]", "value": 0.57, "unit": "µg/mL"},
      {"measurement": "EC50", "setting": "[14]; [40]", "value": 0.62, "unit": "µg/mL"},
      {"measurement": "EC50", "setting": "[33]", "value": 0.69, "unit": "µg/mL"},
      {"measurement": "EC50", "setting": "[15]; [40]", "value": 0.28, "unit": "µg/mL"},
      {"measurement": "EC50", "setting": "[16]; [40]", "value": 0.2, "unit": "µg/mL"},
      {"measurement": "EC50", "setting": "[34]", "value": 0.78, "unit": "µg/mL"},
      {"measurement": "EC50", "setting": "[35]", "value": 0.5, "unit": "µg/mL"},
      {"measurement": "EC50", "setting": "[17]; [40]", "value": 0.44, "unit": "µg/mL"},
      {"measurement": "EC50", "setting": "[18]; [40]", "value": 0.18, "unit": "µg/mL"},
      {"measurement": "EC50", "setting": "[19]; [40]", "value": 0.22, "unit": "µg/mL"},
      {"measurement": "EC50", "setting": "[20]; [40]", "value": 0.55, "unit": "µg/mL"},
      {"measurement": "EC50", "setting": "[36]", "value": 0.5, "unit": "µg/mL"},
      {"measurement": "EC50", "setting": "[37]", "value": 0.52, "unit": "µg/mL"},
      {"measurement": "EC50", "setting": "[38]", "value": 0.65, "unit": "µg/mL"},
      {"measurement": "EC50", "setting": "[39]", "value": 1.16, "unit": "µg/mL"}
    ]}
  ]
}
